Legend:
Assay type in all cases: cell-based
[1] = tested on: OVCAR3 ovarian cancer cells; experiment: Inhibitory activity against ovarian cancer cells (OVCAR3), CellTiter-Glo viability; conditions: Homo sapiens, OVCAR-3, 120 h, OVCAR3, 5 days treatment
Experimental: OVCAR3 ovarian cancer cells were cultured in a cell incubator at […] with 5% CO2 using RPMI 1640 medium with […]. On the first day, the cells were plated in a 96-well plate at a cell concentration of 2500 cells/well and cultured overnight in the incubator. On the second day, the cells were treated with compounds. The maximum compound concentration was 10 μM and was 3-fold diluted to obtain 9 concentrations, and the final concentration of DMSO was 0.1%. After the cells were cultured in the incubator for another 5 days, cell viability was tested using the Celltiter Glo assay kit (Promega), and the testing method was consistent with the operational method provided by the kit. Data were processed using GraphPad Prism 8, and IC50 was calculated.
[formula] • X: the logarithm of the compound concentration; Y: % inhibition.

[2] = tested on: PANC-1 pancreatic cancer cells; experiment: Inhibitory activity against tumor cells, CellTiter-Glo: PANC-1; conditions: Homo sapiens, 120 h, PANC-1, 5 days treatment
Experimental: (§1) MCF7 (ATCC #HTB-22) and T47D (ATCC #HTB-133) breast cancer cells and PANC-1 (ATCC #CRL-1469) pancreatic cancer cells were purchased from ATCC. MDA-MB-231 (Cobioer #CBP60382), HCC1806 (Cobioer #CBP60373), and MDA-MB-468 (Cobioer #CBP60387) breast cancer cells, HCT-116 (Cobioer #CBP60028) colorectal cancer cells, and OCI-AML-3 (Cobioer #CBP60817) and MV-4-11 (Cobioer #CBP60522) leukemia cells were purchased from Nanjing Cobioer Biosciences Co., Ltd.
(§2) OCI-AML-3 was cultured in RPMI 1640 medium with 20% FBS; HCC1806 and T47D were cultured in RPMI 1640 medium with 10% FBS; MCF7, MDA-MB-231, MDA-MB-468, and PANC-1 were cultured in DMEM medium with 10% FBS; MV-4-11 was cultured in IMDM medium with 20% FBS; HCT-116 was cultured in MC′5A medium with 10% FBS.
(§3) Palbociclib-resistant cells were constructed on MCF7 parent cells, designated MCF7 Palbo-R, and the culture conditions were consistent with those of the parent cells. All tumor cells were cultured in a cell incubator at 37° C. with 5% CO2. The cells were seeded at corresponding cell densities (600 cells/well for MDA-MB-231; 500 cells/well for MDA-MB-468, PANC-1, and HCT-116; 200 cells/well for MCF7 and HCC1806; 800 cells/well for MCF7 Palbo-R; 3000 cells/well for OCI-AML-3 and MV-4-11) in 384-well plates and cultured overnight in the incubator. On the second day, the cells were treated with compounds. The maximum compound concentration was 10 μM and was 3-fold diluted to obtain 9 concentrations, each tested in duplicate, and the final concentration of DMSO was 0.1%. The cells continued to be cultured in the incubator, with MDA-MB-231, PANC-1, MDA-MB-468, OCI-AML-3, and MV-4-11 being treated with drugs for 5 days and HCC1806, MCF7, MCF7 Palbo-R, and HCT116 being treated with drugs for 7 days. Cell viability was tested using the Celltiter Glo assay kit (Promega), and the testing method was consistent with the operational method provided by the kit. Readings were taken using an Envision multimode microplate reader. Data were processed using GraphPad Prism 8, and IC50 was calculated. […]

T47D breast cancer cells = experiment: Inhibitory activity against tumor cells, CellTiter-Glo: T47D; conditions: Homo sapiens
Experimental: as §1, §2
(§4) Palbociclib-resistant cells were constructed on MCF7 parent cells, designated MCF7 Palbo-R, and the culture conditions were consistent with those of the parent cells. All tumor cells were cultured in a cell incubator at 37° C. with 5% CO2. The cells were seeded at corresponding cell densities (600 cells/well for MDA-MB-231; 500 cells/well for MDA-MB-468, PANC-1, and HCT-116; 200 cells/well for MCF7 and HCC1806; 800 cells/well for MCF7 Palbo-R; 3000 cells/well for OCI-AML-3 and MV-4-11) in 384-well plates and cultured overnight in the incubator. On the second day, the cells were treated with compounds. The maximum compound concentration was 10 μM and was 3-fold diluted to obtain 9 concentrations, each tested in duplicate, and the final concentration of DMSO was 0.1%. The cells continued to be cultured in the incubator, with MDA-MB-231, PANC-1, MDA-MB-468, OCI-AML-3, and MV-4-11 being treated with drugs for 5 days and HCC1806, MCF7, MCF7 Palbo-R, and HCT116 being treated with drugs for 7 days. Cell viability was tested using the Celltiter Glo assay kit (Promega), and the testing method was consistent with the operational method provided by the kit. Readings were taken using an Envision multimode microplate reader. Data were processed using GraphPad Prism 8, and IC50 was calculated.
(§5) Y=Bottom+(Top−Bottom)/(1+10^((Log IC50−X)×HillSlope)). Calculation formula: • X: the logarithm of the compound concentration; Y: % inhibition.

[3] = tested on: MDA-MB-231 breast cancer cells; experiment: Inhibitory activity against tumor cells, CellTiter-Glo: MDA-MB-231; conditions: Homo sapiens, 120 h, MDA-MB-231, 5 days treatment
Experimental: as §1, §2, §3

[4] = tested on: MDA-MB-468 breast cancer cells; experiment: Inhibitory activity against tumor cells, CellTiter-Glo: MDA-MB-468; conditions: Homo sapiens, 120 h, MDA-MB-468, 5 days treatment
Experimental: as §1, §2, §3

[5] = tested on: HCT-116 colorectal cancer cells; experiment: Inhibitory activity against tumor cells, CellTiter-Glo: HCT-116; conditions: Homo sapiens, 168 h, HCT-116, 7 days treatment
Experimental: as §1, §2, §4, §5

[6] = tested on: MCF7 Palbo-R (palbociclib-resistant cells constructed on MCF7); experiment: Inhibitory activity against tumor cells, CellTiter-Glo: MCF7 Palbo-R; conditions: Homo sapiens, 168 h, 7 days treatment
Experimental: as §1, §2, §3

[7] = tested on: HCC1806 breast cancer cells; experiment: Inhibitory activity against tumor cells, CellTiter-Glo: HCC1806; conditions: Homo sapiens, 168 h, HCC1806, 7 days treatment
Experimental: as §1, §2, §3

MCF7 breast cancer cells = experiment: Inhibitory activity against tumor cells, CellTiter-Glo: MCF7; conditions: Homo sapiens, 168 h, MCF7, 7 days treatment
Experimental: as §1, §2, §3

MV-4-11 leukemia cells = experiment: Inhibitory activity against tumor cells, CellTiter-Glo: MV-4-11; conditions: Homo sapiens, MV4-11, 120 h, MV-4-11, 5 days treatment
Experimental: as §1, §2, §3

OCI-AML-3 leukemia cells = experiment: Inhibitory activity against tumor cells, CellTiter-Glo: OCI-AML-3; conditions: Homo sapiens, 120 h, OCI-AML-3, 5 days treatment
Experimental: as §1, §2, §3

various tumor cell lines = experiment: Inhibitory activity against tumor cells, summary over the panel of Tables 4 and 5; conditions: summary of Tables 4 and 5
Experimental: as §1, §2, §4, §5

C[C@@H]1Cc2cnc(N[C@H](C)c3ccccc3)nc2CN1C(=O)N[C@H](CN(C)C)c1ccccc1 [Example 5, (R)—N—((S)-2-(Dimethylamino)-1-phenylethyl)-6-methyl-2-(((R)-1-phenylethyl)amino)-5,8-dihydropyrido[3,4-d]pyrimidine-7(6H)-carboxamide]
IC50 [1]: 81.2 nM

C[C@@H]1Cc2cnc(NCc3ccn(C)n3)nc2CN1C(=O)N[C@H](CN(C)C)c1cccc(Cl)c1 [Example 13, (R)—N—((S)-1-(3-Chlorophenyl)-2-(dimethylamino)ethyl)-6-methyl-2-(((1-methyl-TH-pyrazol-3-yl)methyl)amino)-5,8-dihydropyrido[3,4-d]pyrimidine-7(6H)-carboxamide]
IC50 [1]: 21.7 nM

CC1Cc2cnc(NC3CCOCC3)nc2CN1C(=O)N[C@H](CN(C)C)c1ccccc1 (stereo partly drawn) [Example 10, N—((S)-2-(Dimethylamino)-1-phenylethyl)-6-methyl-2-((tetrahydro-2H-pyran-4-yl)amino)-5,8-dihydropyrido[3,4-d]pyrimidine-7(6H)-carboxamide]
IC50 [1]: 42.6 nM

[2H]C([2H])([2H])N(C[C@@H](NC(=O)N1Cc2nc(NCc3ccn(C)n3)ncc2C[C@H]1C)c1ccccc1)C([2H])([2H])[2H] [Example 12, (R)—N—((S)-2-(Bis(methyl-d3)amino)-1-phenylethyl)-6-methyl-2-(((1-methyl-1H-pyrazol-3-yl)methyl)amino)-5,8-dihydropyrido[3,4-d]pyrimidine-7(6H)-carboxamide]
IC50 [2]: 50.3 nM
IC50 (T47D breast cancer cells): 41.5 nM
IC50 [3]: 25.8 nM
IC50 [4]: 32.4 nM
IC50 [5]: 66 nM
IC50 [6]: 43.3 nM
IC50 [7]: 28.5 nM
IC50 (MCF7 breast cancer cells): 21.7 nM
IC50 (MV-4-11 leukemia cells): 27.3 nM
IC50 [1]: 33.9 nM
IC50 (OCI-AML-3 leukemia cells): 47.1 nM
inhibitory activity against the various tumor cell lines (in words) (various tumor cell lines): high inhibitory activity

C#Cc1cccc([C@@H]2CN(C)CC[C@H]2C(=O)N2Cc3nc(NCc4ccn(C)n4)ncc3C[C@H]2C)c1 [Compound 1-2, ((3R,4R)-3-(3-Ethynylphenyl)-1-methylpiperidin-4-yl)((R)-6-methyl-2-(((1-methyl-1H-pyrazol-3-yl)methyl)amino)-5,8-dihydropyrido[3,4-d]pyrimidin-7(6H)-yl)methanone]
IC50 [1]: 11.5 nM

[2H]C([2H])([2H])N(C[C@@H](NC(=O)N1Cc2nc(N[C@@H](C)c3ccccn3)ncc2C[C@H]1C)c1ccccc1)C([2H])([2H])[2H] [Example 19, (R)—N—((S)-2-(Bis(methyl-d3)amino)-1-phenylethyl)-6-methyl-2-(((S)-1-(pyridin-2-yl)ethyl)amino)-5,8-dihydropyrido[3,4-d]pyrimidine-7(6H)-carboxamide]
IC50 (T47D breast cancer cells): 14.1 nM
IC50 [5]: 29.2 nM
IC50 [1]: 26.1 nM
inhibitory activity against the various tumor cell lines (in words) (various tumor cell lines): high inhibitory activity

[2H]C([2H])([2H])n1ccc(CNc2ncc3c(n2)CN(C(=O)N[C@H](CN(C)C)c2ccccc2)[C@H](C)C3)n1 [Example 14, (R)—N—((S)-2-(Dimethylamino)-1-phenylethyl)-6-methyl-2-(((1-(methyl-d3)-1H-pyrazol-3-yl)methyl)amino)-5,8-dihydropyrido[3,4-d]pyrimidine-7(6H)-carboxamide]
IC50 [1]: 40.5 nM

C[C@@H]1Cc2cnc(NC3Cc4ccccc4C3)nc2CN1C(=O)N[C@H](CN(C)C)c1ccccc1 [Example 7, (R)-2-((2,3-Dihydro-1H-inden-2-yl)amino)-N—((S)-2-(dimethylamino)-1-phenylethyl)-6-methyl-5,8-dihydropyrido[3,4-d]pyrimidine-7(6H)-carboxamide]
IC50 [1]: 6.44 nM

C[C@@H]1Cc2cnc(Nc3cnn(C)c3)nc2CN1C(=O)N[C@H](CN(C)C)c1ccccc1 [Example 17, (R)—N—((S)-2-(Dimethylamino)-1-phenylethyl)-6-methyl-2-((1-methyl-1H-pyrazol-4-yl)amino)-5,8-dihydropyrido[3,4-d]pyrimidine-7(6H)-carboxamide]
IC50 [1]: 22.5 nM

C[C@H](Nc1ncc2c(n1)CN(C(=O)N[C@H](CN(C)C)c1ccccc1)[C@H](C)C2)c1ccccc1 [Example 9, (R)—N—((S)-2-(Dimethylamino)-1-phenylethyl)-6-methyl-2-(((S)-1-phenylethyl)amino)-5,8-dihydropyrido[3,4-d]pyrimidine-7(6H)-carboxamide]
IC50 [1]: 13.8 nM

CCN(C)C[C@@H](NC(=O)N1Cc2nc(NCc3ccn(C)n3)ncc2C[C@H]1C)c1ccccc1 [Example 8, (R)—N—((S)-2-(Ethyl(methyl)amino)-1-phenylethyl)-6-methyl-2-(((1-methyl-1H-pyrazol-3-yl)methyl)amino)-5,8-dihydropyrido[3,4-d]pyrimidine-7(6H)-carboxamide]
IC50 [1]: 58.3 nM

Cc1cc(Nc2ncc3c(n2)CN(C(=O)N[C@H](CN(C)C)c2ccccc2)[C@H](C)C3)ccn1 [Example 15, (R)—N—((S)-2-(Dimethylamino)-1-phenylethyl)-6-methyl-2-((2-methylpyridin-4-yl)amino)-5,8-dihydropyrido[3,4-d]pyrimidine-7(6H)-carboxamide]
IC50 [1]: 26.7 nM

C[C@@H]1Cc2cnc(Nc3cnn(CC4CC4)c3)nc2CN1C(=O)N[C@H](CN(C)C)c1ccccc1 [Example 16, (R)-2-((1-(Cyclopropylmethyl)-1H-pyrazol-4-yl)amino)-N—((S)-2-(dimethylamino)-1-phenylethyl)-6-methyl-5,8-dihydropyrido[3,4-d]pyrimidine-7(6H)-carboxamide]
IC50 [1]: 9.99 nM
